# System: 966289-007-R4-J1-PDC complex spheroid viability
# Assay: Anticancer human tumor 966289-007-R4-J1-PDC patient-derived pancreatic adenocarcinoma cell line growth inhibition [GQUAD]
# Conditions: for IC50: curve of first compound; for viability, T/C: stronger effect = lower value
# Procedure, shortened: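 Multi-cell-type spheroids of tumor cells with HUVEC and mesenchymal stem cells, treated with drug combinations. Concentrations descend in half-log steps from near clinical Cmax, or from 10 microM where Cmax is unknown; viability read-out.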
# [1] = second compound 0.0316 µM, first compound 0.0316 µM
# [2] = second compound 0.0316 µM, first compound 0.1 µM
# [3] = second compound 0.0316 µM, first compound 0.316 µM
# [4] = second compound 0.0316 µM, first compound 1 µM
# [5] = second compound 0.0316 µM, first compound 3.16 µM
# [6] = second compound 0.0316 µM, first compound 10 µM
# [7] = second compound 0.1 µM, first compound 0.0316 µM
# [8] = second compound 0.1 µM, first compound 0.1 µM
# [9] = second compound 0.1 µM, first compound 0.316 µM
# [10] = second compound 0.1 µM, first compound 1 µM
# [11] = second compound 0.1 µM, first compound 3.16 µM
# [12] = second compound 0.1 µM, first compound 10 µM
# [13] = second compound 0.316 µM, first compound 0.0316 µM
# [14] = second compound 0.316 µM, first compound 0.1 µM
# [15] = second compound 0.316 µM, first compound 0.316 µM
# [16] = second compound 0.316 µM, first compound 1 µM
# [17] = second compound 0.316 µM, first compound 3.16 µM
# [18] = second compound 0.316 µM, first compound 10 µM
# [19] = second compound 1 µM, first compound 0.0316 µM
# [20] = second compound 1 µM, first compound 0.1 µM
# [21] = second compound 1 µM, first compound 0.316 µM
# [22] = second compound 1 µM, first compound 1 µM
# [23] = second compound 1 µM, first compound 3.16 µM
# [24] = second compound 1 µM, first compound 10 µM
# [25] = second compound 3.16 µM, first compound 0.0316 µM
# [26] = second compound 3.16 µM, first compound 0.1 µM
# [27] = second compound 3.16 µM, first compound 0.316 µM
# [28] = second compound 3.16 µM, first compound 1 µM
# [29] = second compound 3.16 µM, first compound 3.16 µM
# [30] = second compound 3.16 µM, first compound 10 µM
# [31] = second compound 10 µM, first compound 0.0316 µM
# [32] = second compound 10 µM, first compound 0.1 µM
# [33] = second compound 10 µM, first compound 0.316 µM
# [34] = second compound 10 µM, first compound 1 µM
# [35] = second compound 10 µM, first compound 3.16 µM
# [36] = second compound 10 µM, first compound 10 µM
# 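Note: spheroids exposed to the agents for seven days before readout.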
# 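Throughout, for viability, T/C: percent viability relative to DMSO vehicle control wells taken as 100%.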
compound,measurement,setting,value
C=CCn1c(=O)c2cnc(Nc3ccc(N4CCN(C)CC4)cc3)nc2n1-c1cccc(C(C)(C)O)n1 + CN(C)c1ccc(Nc2c3ccc(NC(=O)CCN4CCCC4)cc3nc3cc(NC(=O)CCN4CCCC4)ccc23)cc1,IC50,second compound 0.0316 µM,1850 nM
same,IC50,second compound 0.1 µM,1880 nM
same,IC50,second compound 0.316 µM,1900 nM
same,IC50,second compound 1 µM,1900 nM
same,IC50,second compound 3.16 µM,1750 nM
same,IC50,second compound 10 µM,1320 nM
same,"viability, T/C",[1],104%
same,"viability, T/C",[2],103%
same,"viability, T/C",[3],113%
same,"viability, T/C",[4],99.8%
same,"viability, T/C",[5],6.96%
same,"viability, T/C",[6],2.02%
same,"viability, T/C",[7],99.6%
same,"viability, T/C",[8],103%
same,"viability, T/C",[9],111%
same,"viability, T/C",[10],101%
same,"viability, T/C",[11],8.04%
same,"viability, T/C",[12],1.98%
same,"viability, T/C",[13],96.8%
same,"viability, T/C",[14],97.2%
same,"viability, T/C",[15],110%
same,"viability, T/C",[16],102%
same,"viability, T/C",[17],8.92%
same,"viability, T/C",[18],1.93%
same,"viability, T/C",[19],95.3%
same,"viability, T/C",[20],108%
same,"viability, T/C",[21],113%
same,"viability, T/C",[22],102%
same,"viability, T/C",[23],8.33%
same,"viability, T/C",[24],2.74%
same,"viability, T/C",[25],104%
same,"viability, T/C",[26],104%
same,"viability, T/C",[27],112%
same,"viability, T/C",[28],88.2%
same,"viability, T/C",[29],9.59%
same,"viability, T/C",[30],4.27%
same,"viability, T/C",[31],105%
same,"viability, T/C",[32],102%
same,"viability, T/C",[33],101%
same,"viability, T/C",[34],64.6%
same,"viability, T/C",[35],3.41%
same,"viability, T/C",[36],1.03%
CC(C)(O)C1CCC(Nc2ccc3ncc(-c4cccc(C(F)(F)F)c4)n3n2)CC1 (stereo not drawn) + CN(C)c1ccc(Nc2c3ccc(NC(=O)CCN4CCCC4)cc3nc3cc(NC(=O)CCN4CCCC4)ccc23)cc1,IC50,second compound 0.0316 µM,> 10000 nM
same,IC50,second compound 0.1 µM,2940 nM
same,IC50,second compound 0.316 µM,3080 nM
same,IC50,second compound 1 µM,2090 nM
same,IC50,second compound 3.16 µM,1830 nM
same,IC50,second compound 10 µM,668 nM
same,"viability, T/C",[1],108%
same,"viability, T/C",[2],102%
same,"viability, T/C",[3],101%
same,"viability, T/C",[4],95.3%
same,"viability, T/C",[5],53.1%
same,"viability, T/C",[6],57.9%
same,"viability, T/C",[7],109%
same,"viability, T/C",[8],101%
same,"viability, T/C",[9],98.1%
same,"viability, T/C",[10],103%
same,"viability, T/C",[11],39.4%
same,"viability, T/C",[12],53.4%
same,"viability, T/C",[13],97.7%
same,"viability, T/C",[14],100%
same,"viability, T/C",[15],95.8%
same,"viability, T/C",[16],110%
same,"viability, T/C",[17],43.9%
same,"viability, T/C",[18],53.8%
same,"viability, T/C",[19],95.1%
same,"viability, T/C",[20],103%
same,"viability, T/C",[21],102%
same,"viability, T/C",[22],97.5%
same,"viability, T/C",[23],18.3%
same,"viability, T/C",[24],28.3%
same,"viability, T/C",[25],103%
same,"viability, T/C",[26],98.7%
same,"viability, T/C",[27],100%
same,"viability, T/C",[28],106%
same,"viability, T/C",[29],2.64%
same,"viability, T/C",[30],1.96%
same,"viability, T/C",[31],103%
same,"viability, T/C",[32],104%
same,"viability, T/C",[33],104%
same,"viability, T/C",[34],20.9%
same,"viability, T/C",[35],0.21%
same,"viability, T/C",[36],0.8%
COc1ncnc(C2CC2)c1-c1ncc2cnn(Cc3ccc(-c4nc(C(F)(F)F)cn4C(C)C)cc3)c2n1 + CN(C)c1ccc(Nc2c3ccc(NC(=O)CCN4CCCC4)cc3nc3cc(NC(=O)CCN4CCCC4)ccc23)cc1,IC50,second compound 0.0316 µM,> 10000 nM
same,IC50,second compound 0.1 µM,> 10000 nM
same,IC50,second compound 0.316 µM,> 10000 nM
same,IC50,second compound 1 µM,> 10000 nM
same,IC50,second compound 3.16 µM,> 10000 nM
same,IC50,second compound 10 µM,5620 nM
same,"viability, T/C",[1],103%
same,"viability, T/C",[2],97%
same,"viability, T/C",[3],108%
same,"viability, T/C",[4],98.1%
same,"viability, T/C",[5],100%
same,"viability, T/C",[6],109%
same,"viability, T/C",[7],103%
same,"viability, T/C",[8],100%
same,"viability, T/C",[9],105%
same,"viability, T/C",[10],105%
same,"viability, T/C",[11],92.7%
same,"viability, T/C",[12],107%
same,"viability, T/C",[13],103%
same,"viability, T/C",[14],102%
same,"viability, T/C",[15],105%
same,"viability, T/C",[16],100%
same,"viability, T/C",[17],92%
same,"viability, T/C",[18],106%
same,"viability, T/C",[19],93.9%
same,"viability, T/C",[20],99.5%
same,"viability, T/C",[21],104%
same,"viability, T/C",[22],92.7%
same,"viability, T/C",[23],98.3%
same,"viability, T/C",[24],101%
same,"viability, T/C",[25],102%
same,"viability, T/C",[26],98.2%
same,"viability, T/C",[27],106%
same,"viability, T/C",[28],100%
same,"viability, T/C",[29],106%
same,"viability, T/C",[30],110%
same,"viability, T/C",[31],102%
same,"viability, T/C",[32],103%
same,"viability, T/C",[33],109%
same,"viability, T/C",[34],107%
same,"viability, T/C",[35],91.7%
same,"viability, T/C",[36],8.22%
CC(C)n1c(=O)n(C)c2cnc3cc(F)c(-c4ccc(OCCCN5CCCCC5)nc4)cc3c21 + Cc1[nH]c2ccc(F)cc2c1-c1nc2c3cccnc3c3ncccc3c2[nH]1,IC50,second compound 0.0316 µM,> 10000 nM
same,IC50,second compound 0.1 µM,> 10000 nM
same,IC50,second compound 0.316 µM,> 10000 nM
same,IC50,second compound 1 µM,> 10000 nM
same,IC50,second compound 3.16 µM,> 10000 nM
same,IC50,second compound 10 µM,> 10000 nM
same,"viability, T/C",[1],112%
same,"viability, T/C",[2],101%
same,"viability, T/C",[3],110%
same,"viability, T/C",[4],101%
same,"viability, T/C",[5],109%
same,"viability, T/C",[6],82.4%
same,"viability, T/C",[7],104%
same,"viability, T/C",[8],101%
same,"viability, T/C",[9],109%
same,"viability, T/C",[10],105%
same,"viability, T/C",[11],110%
same,"viability, T/C",[12],89.1%
same,"viability, T/C",[13],99.8%
same,"viability, T/C",[14],110%
same,"viability, T/C",[15],106%
same,"viability, T/C",[16],111%
same,"viability, T/C",[17],105%
same,"viability, T/C",[18],85.9%
same,"viability, T/C",[19],104%
same,"viability, T/C",[20],108%
same,"viability, T/C",[21],109%
same,"viability, T/C",[22],109%
same,"viability, T/C",[23],109%
same,"viability, T/C",[24],85.5%
same,"viability, T/C",[25],102%
same,"viability, T/C",[26],107%
same,"viability, T/C",[27],110%
same,"viability, T/C",[28],104%
same,"viability, T/C",[29],105%
same,"viability, T/C",[30],62.2%
same,"viability, T/C",[31],103%
same,"viability, T/C",[32],104%
same,"viability, T/C",[33],107%
same,"viability, T/C",[34],104%
same,"viability, T/C",[35],94.9%
same,"viability, T/C",[36],61.8%
